For assay [1], the target named is biotinylated Avi-POLθ[2-894] (Homo sapiens (Human), UniProt O75417). Kind of assay: POLθ ATPase assay (ADP-Glo). Conditions: POLθ ATPase, ADP-Glo; n=2; read-out: Biochemical ATPase ADPGlo IC50. For orientation: ADP-Glo turns the ADP formed in a reaction into a luminescent signal.
In assay [2] the test system is DLD1 BRCA2 (−/−) cells. Kind of assay: 7-day cell viability assay (CellTiter-Glo), DLD1 BRCA2 (−/−). In kind it is cell-based, human. The settings on record: 7-day CellTiter-Glo, n=2, read-out: Viability IC50 (uM) DLD1 BRCA2 null. Put shortly:
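7-day growth assay in DLD1 cells with or without BRCA2; seeding densities chosen to keep log-linear growth. Compound: 10 uM top, 3-fold, 9 points. Endpoint: CTG ATP luminescence at RT.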
(In general: Cellular ATP, detected with luciferase, serves as a proxy for viable cell number.)

Assay [3] deals with DLD1 WT cells. Kind of assay: 7-day cell viability assay (CellTiter-Glo), DLD1 parental (WT). It is filed as cell-based, human. The settings on record: 7-day CellTiter-Glo, n=2.

Read-outs that look alike come from different tables or passages of the source. A value given as a limit tells only on which side of the number the result lay.

Chain of biotinylated Avi-POLθ[2-894] (O75417 2-894): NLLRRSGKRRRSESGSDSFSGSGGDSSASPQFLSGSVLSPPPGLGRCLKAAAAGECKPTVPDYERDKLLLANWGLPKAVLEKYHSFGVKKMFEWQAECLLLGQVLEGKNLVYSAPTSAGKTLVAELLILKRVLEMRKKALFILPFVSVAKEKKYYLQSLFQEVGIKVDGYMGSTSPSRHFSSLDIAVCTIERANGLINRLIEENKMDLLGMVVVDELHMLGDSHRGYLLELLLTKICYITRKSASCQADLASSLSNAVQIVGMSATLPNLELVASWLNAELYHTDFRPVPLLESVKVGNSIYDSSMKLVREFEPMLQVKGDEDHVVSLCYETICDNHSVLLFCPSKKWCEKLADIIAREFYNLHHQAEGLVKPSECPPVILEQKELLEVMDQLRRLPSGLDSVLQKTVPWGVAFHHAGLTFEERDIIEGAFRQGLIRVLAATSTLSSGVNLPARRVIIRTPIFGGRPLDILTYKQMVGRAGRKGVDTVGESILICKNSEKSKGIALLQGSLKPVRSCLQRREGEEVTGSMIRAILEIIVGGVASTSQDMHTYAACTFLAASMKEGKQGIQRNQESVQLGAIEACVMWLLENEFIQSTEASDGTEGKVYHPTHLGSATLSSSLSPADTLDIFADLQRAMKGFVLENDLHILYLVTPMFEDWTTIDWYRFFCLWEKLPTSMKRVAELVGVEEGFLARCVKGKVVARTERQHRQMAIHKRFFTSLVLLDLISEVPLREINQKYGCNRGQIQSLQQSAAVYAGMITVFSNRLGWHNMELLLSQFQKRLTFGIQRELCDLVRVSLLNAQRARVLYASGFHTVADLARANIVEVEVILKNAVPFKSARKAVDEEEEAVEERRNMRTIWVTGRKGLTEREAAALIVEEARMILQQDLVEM

As for `COc1cnc(Cl)cc1-c1cc(C)ncc1C(=O)Nc1nc2c(s1)CN(C(=O)c1cnc(C(F)(F)F)cn1)C2`, the IC50 (usually the concentration that gives 50% inhibition) in assay [1] was 1 to 15 nM; in assay [2] (Homo sapiens, DLD-1, 168 h) it was 0.001 to 0.1 µM; in assay [3] (Homo sapiens, DLD-1, 168 h) it was not below 10 µM.

As to `COc1ccc(C(=O)N2Cc3nc(NC(=O)c4cnc(C)cc4-c4cc(Cl)ncc4OC)sc3C2)c(OC)n1`, the half-maximal inhibitory concentration (IC50) in assay [1] lay within 1 to 15 nM; in assay [2] (Homo sapiens, DLD-1, 168 h), 0.001 to 0.1 µM; in assay [3] (Homo sapiens, DLD-1, 168 h), 5 to 10 µM.

As to `COc1ccc(Cl)c(C(=O)N2Cc3nc(NC(=O)c4cnc(C)cc4-c4cc(Cl)ncc4OC)sc3C2)n1`, the concentration for half-maximal inhibition (IC50) was 1 to 15 nM in assay [1]; 0.001 to 0.1 µM in assay [2] (Homo sapiens, DLD-1, 168 h); not below 10 µM in assay [3] (Homo sapiens, DLD-1, 168 h).

With `COc1cnc(Cl)cc1-c1cc(C)ncc1C(=O)Nc1nc2c(s1)CN(C(=O)c1ccc(F)c(C(F)F)n1)C2`, the half-maximal inhibitory concentration (IC50) in assay [1] was 1 to 15 nM; in assay [2] (Homo sapiens, DLD-1, 168 h) it was 0.001 to 0.1 µM; in assay [3] (Homo sapiens, DLD-1, 168 h), not below 10 µM.

Take `COc1cnc(Cl)cc1-c1cc(C)ncc1C(=O)Nc1nc2c(s1)CN(C(=O)c1ccc(C(F)F)nc1Cl)C2`: the IC50 in assay [1] is 1 to 15 nM; in assay [2] (Homo sapiens, DLD-1, 168 h), 0.001 to 0.1 µM; in assay [3] (Homo sapiens, DLD-1, 168 h), not below 10 µM.

`COc1cccc(C(=O)N2Cc3nc(NC(=O)c4cnc(C)cc4-c4cc(Cl)ncc4OC)sc3C2)n1`: the half-inhibitory concentration (IC50) in assay [1] lay in the range of 1 to 15 nM; in assay [2] (Homo sapiens, DLD-1, 168 h), 0.001 to 0.1 µM; in assay [3] (Homo sapiens, DLD-1, 168 h), 2 to 5 µM.

For `COc1ccc(C(=O)N2Cc3nc(NC(=O)c4cnc(C)cc4-c4cc(Cl)ncc4OC)sc3C2)c(Cl)n1`, the concentration for half-maximal inhibition (IC50) in assay [1] was 1 to 15 nM; in assay [2] (Homo sapiens, DLD-1, 168 h) it was 0.001 to 0.1 µM; in assay [3] (Homo sapiens, DLD-1, 168 h), not below 10 µM.

`COc1cnc(Cl)cc1-c1cc(C)ncc1C(=O)Nc1nc2c(s1)CN(C(=O)c1cnc(OC)c(Cl)c1)C2`: the half-inhibitory concentration (IC50) is 1 to 15 nM in assay [1]; 0.001 to 0.1 µM in assay [2] (Homo sapiens, DLD-1, 168 h); 5 to 10 µM in assay [3] (Homo sapiens, DLD-1, 168 h).

As to `COc1cnc(Cl)cc1-c1cc(C)ncc1C(=O)Nc1nc2c(s1)CN(C(=O)c1ccnc(C)n1)C2`, the IC50 is 1 to 15 nM in assay [1]; 0.001 to 0.1 µM in assay [2] (Homo sapiens, DLD-1, 168 h); 5 to 10 µM in assay [3] (Homo sapiens, DLD-1, 168 h).

As for `COc1cnc(Cl)cc1-c1cc(C)ncc1C(=O)Nc1nc2c(s1)CN(C(=O)c1cnc(C)cn1)C2`, the IC50 lay in the range of 1 to 15 nM in assay [1]; 0.001 to 0.1 µM in assay [2] (Homo sapiens, DLD-1, 168 h); 2 to 5 µM in assay [3] (Homo sapiens, DLD-1, 168 h).

As for `COc1ccc(C(=O)N2Cc3nc(NC(=O)c4cnc(C)cc4-c4cc(Cl)ncc4OC)sc3C2)cn1`, the IC50 is 1 to 15 nM in assay [1]; 0.001 to 0.1 µM in assay [2] (Homo sapiens, DLD-1, 168 h); not below 10 µM in assay [3] (Homo sapiens, DLD-1, 168 h).

In the case of `COc1cc(Cl)c(C(=O)N2Cc3nc(NC(=O)c4cnc(C)cc4-c4cc(Cl)ncc4OC)sc3C2)cn1`, the IC50 in assay [1] was 1 to 15 nM; in assay [2] (Homo sapiens, DLD-1, 168 h) it was 0.001 to 0.1 µM; in assay [3] (Homo sapiens, DLD-1, 168 h), not below 10 µM.

For `COc1nccc(C(=O)N2Cc3nc(NC(=O)c4cnc(C)cc4-c4cc(Cl)ncc4OC)sc3C2)n1`, the half-inhibitory concentration (IC50) in assay [1] was 1 to 15 nM; in assay [2] (Homo sapiens, DLD-1, 168 h), 0.001 to 0.1 µM; in assay [3] (Homo sapiens, DLD-1, 168 h), not below 10 µM.

Consider `COc1cnc(Cl)cc1-c1cc(C)ncc1C(=O)Nc1nc2c(s1)CN(C(=O)c1cnc(C(F)F)nc1)C2`, for which the half-maximal inhibitory concentration (IC50) was 1 to 15 nM in assay [1]; 0.001 to 0.1 µM in assay [2] (Homo sapiens, DLD-1, 168 h); not below 10 µM in assay [3] (Homo sapiens, DLD-1, 168 h).

With `COc1cc(Cl)cc(C(=O)N2Cc3nc(NC(=O)c4cnc(C)cc4-c4cc(Cl)ncc4OC)sc3C2)n1`, the half-inhibitory concentration (IC50) in assay [1] was 1 to 15 nM; in assay [2] (Homo sapiens, DLD-1, 168 h), 0.001 to 0.1 µM; in assay [3] (Homo sapiens, DLD-1, 168 h) it was not below 10 µM.

Regarding `COc1nc(C(F)(F)F)ccc1C(=O)N1Cc2nc(NC(=O)c3cnc(C)cc3-c3cc(C(F)F)cnc3OC)sc2C1` [Example 1032, 5-(difluoromethyl)-2-methoxy-N-(5-(2-methoxy-6-(trifluoromethyl)nicotinoyl)-5,6-dihydro-4H-pyrrolo[3,4-d]thiazol-2-yl)-6′-methyl-[3,4′-bipyridine]-3′-carboxamide], the IC50 was 0.001 to 0.1 µM in assay [2] (Homo sapiens, DLD-1, 168 h) and not below 10 µM in assay [3] (Homo sapiens, DLD-1, 168 h).

`COc1cnc(Cl)cc1-c1cc(C)ncc1C(=O)Nc1nc2c(s1)CN(C(=O)c1ccc(C(F)(F)F)nc1OC)C2C` (centres unmarked) [Example 1033, 2′-chloro-5′-methoxy-N-(5-(2-methoxy-6-(trifluoromethyl)nicotinoyl)-4-methyl-5,6-dihydro-4H-pyrrolo[3,4-d]thiazol-2-yl)-6-methyl-[4,4′-bipyridine]-3-carboxamide]: the IC50 in assay [2] (Homo sapiens, DLD-1, 168 h) is 0.001 to 0.1 µM; in assay [3] (Homo sapiens, DLD-1, 168 h), not below 10 µM.

For `COc1ncc(Cl)cc1-c1cc(C)ncc1C(=O)Nc1nc2c(s1)CN(C(=O)c1nccc(C(F)(F)F)c1OC)C2` [Example 1034, 5-chloro-2-methoxy-N-(5-(3-methoxy-4-(trifluoromethyl)picolinoyl)-5,6-dihydro-4H-pyrrolo[3,4-d]thiazol-2-yl)-6′-methyl-[3,4′-bipyridine]-3′-carboxamide], the half-maximal inhibitory concentration (IC50) in assay [2] (Homo sapiens, DLD-1, 168 h) is 0.001 to 0.1 µM; in assay [3] (Homo sapiens, DLD-1, 168 h), not below 10 µM.

As for `COc1ncc(Cl)cc1-c1cc(C)ncc1C(=O)Nc1nc2c(s1)CN(C(=O)c1ccc(C(F)(F)F)c(OC)n1)C2` [Example 1035, 5-chloro-2-methoxy-N-(5-(6-methoxy-5-(trifluoromethyl)picolinoyl)-5,6-dihydro-4H-pyrrolo[3,4-d]thiazol-2-yl)-6′-methyl-[3,4′-bipyridine]-3′-carboxamide], the concentration for half-maximal inhibition (IC50) is 0.001 to 0.1 µM in assay [2] (Homo sapiens, DLD-1, 168 h) and not below 10 µM in assay [3] (Homo sapiens, DLD-1, 168 h).

For the molecule `COc1ccc(C(=O)N2Cc3nc(NC(=O)c4cnc(C)cc4-c4cc(Cl)ncc4OC)sc3C2)c(F)n1` [Example 1038, 2′-chloro-N-(5-(2-fluoro-6-methoxynicotinoyl)-5,6-dihydro-4H-pyrrolo[3,4-d]thiazol-2-yl)-5′-methoxy-6-methyl-[4,4′-bipyridine]-3-carboxamide], the IC50 in assay [2] (Homo sapiens, DLD-1, 168 h) was 0.1 to 0.25 µM; in assay [3] (Homo sapiens, DLD-1, 168 h) it was not below 10 µM.

In the case of `COc1cnc(Cl)cc1-c1cc(C)ncc1C(=O)Nc1nc2c(s1)CN(C(=O)c1ccc(OC(F)(F)F)nc1OC)C2` [Example 1039, 2′-chloro-5′-methoxy-N-(5-(2-methoxy-6-(trifluoromethoxy)nicotinoyl)-5,6-dihydro-4H-pyrrolo[3,4-d]thiazol-2-yl)-6-methyl-[4,4′-bipyridine]-3-carboxamide], the concentration for half-maximal inhibition (IC50) in assay [2] (Homo sapiens, DLD-1, 168 h) is 0.001 to 0.1 µM; in assay [3] (Homo sapiens, DLD-1, 168 h), not below 10 µM.

Turning to `COc1ncc(Cl)cc1-c1cc(C)ncc1C(=O)Nc1nc2c(s1)CN(C(=O)c1nc(OC)c(C(F)(F)F)cc1C)C2` [Example 1044, 5-chloro-2-methoxy-N-(5-(6-methoxy-3-methyl-5-(trifluoromethyl)picolinoyl)-5,6-dihydro-4H-pyrrolo[3,4-d]thiazol-2-yl)-6′-methyl-[3,4′-bipyridine]-3′-carboxamide], the half-maximal inhibitory concentration (IC50) was 0.001 to 0.1 µM in assay [2] (Homo sapiens, DLD-1, 168 h) and not below 10 µM in assay [3] (Homo sapiens, DLD-1, 168 h).

Take `COc1nc(C(F)(F)F)ccc1C(=O)N1Cc2nc(NC(=O)c3cnc(C)cc3-c3cc(C#N)cnc3OC)sc2C1` [Example 1048, 5-cyano-2-methoxy-N-(5-(2-methoxy-6-(trifluoromethyl)nicotinoyl)-5,6-dihydro-4H-pyrrolo[3,4-d]thiazol-2-yl)-6′-methyl-[3,4′-bipyridine]-3′-carboxamide]: the IC50 is 0.001 to 0.1 µM in assay [2] (Homo sapiens, DLD-1, 168 h) and not below 10 µM in assay [3] (Homo sapiens, DLD-1, 168 h).

Turning to “N-(5-(2-Chloro-3-(difluoromethyl)benzoyl)-5,6-dihydro-4H-pyrrolo[3,4-d]thiazol-2-yl)-4-(5-cyano-2-methoxyphenyl)-6-methylnicotinamide [Example 443]”, the figures for the concentration for half-maximal inhibition (IC50) in assay [2] and in assay [3] were 0.001 to 0.1 µM and not below 10 µM, respectively.

Regarding “N-(5-(2-Methoxy-6-(trifluoromethyl)nicotinoyl)-5,6-dihydro-4H-pyrrolo[3,4-d]thiazol-2-yl)-4-(6-methoxyimidazo[1,5-a]pyridin-7-yl)-6-methylnicotinamide [Example 568]”, the IC50 in assay [2] was 0.001 to 0.1 µM; in assay [3], not below 10 µM.

The values above are taken from US20250230171A1 (MOMA Therapeutics, Inc., priority 2023, published 2025).
